# Measured values: ChEMBL document CHEMBL2073811, “Uptake of the mycotoxin ochratoxin A in liver cells occurs via the cloned organic anion transporting polypeptide” (J Pharmacol Exp Ther, 1996)
# How the values were obtained:
# [1] = target: T1, Solute carrier organic anion transporter family member 1A1 (Rattus norvegicus, UniProt P46720); assay: TP_TRANSPORTER: uptake in Xenopus laevis oocytes; format: functional, cell-based, Oocyte; settings: Xenopus laevis oocytes expressing the transporter
# T1 sequence (P46720 whole entry): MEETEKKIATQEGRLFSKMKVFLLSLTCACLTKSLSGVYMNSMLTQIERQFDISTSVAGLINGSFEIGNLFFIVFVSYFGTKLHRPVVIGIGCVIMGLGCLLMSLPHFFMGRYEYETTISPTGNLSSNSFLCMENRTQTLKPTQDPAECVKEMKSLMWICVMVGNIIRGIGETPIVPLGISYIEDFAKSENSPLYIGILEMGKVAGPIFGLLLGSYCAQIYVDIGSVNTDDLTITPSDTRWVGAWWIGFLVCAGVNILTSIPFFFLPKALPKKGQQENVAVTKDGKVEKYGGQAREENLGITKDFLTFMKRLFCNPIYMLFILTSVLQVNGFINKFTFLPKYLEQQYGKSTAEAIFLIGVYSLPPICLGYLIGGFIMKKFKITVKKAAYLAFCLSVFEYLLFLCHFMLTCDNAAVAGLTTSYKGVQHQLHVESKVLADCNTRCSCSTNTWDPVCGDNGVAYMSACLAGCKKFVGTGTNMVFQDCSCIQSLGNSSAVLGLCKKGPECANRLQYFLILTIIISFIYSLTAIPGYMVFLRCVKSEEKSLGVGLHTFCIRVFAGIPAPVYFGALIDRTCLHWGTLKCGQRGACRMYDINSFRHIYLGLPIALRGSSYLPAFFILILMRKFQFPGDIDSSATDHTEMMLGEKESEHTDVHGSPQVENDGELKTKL
# [2] = target: T1, Solute carrier organic anion transporter family member 1A1; assay: TP_TRANSPORTER: inhibition of Ochratoxin A uptake (OTA: 1 uM, GC: 100uM) in Xenopus laevis oocytes; format: functional, cell-based; settings: oocyte
# [3] = target: T1, Solute carrier organic anion transporter family member 1A1; assay: TP_TRANSPORTER: inhibition of Ochratoxin A uptake (OTA: 1 uM, BSP: 100uM) in Xenopus laevis oocytes; format: functional, cell-based; settings: oocyte
# [4] = target: T1, Solute carrier organic anion transporter family member 1A1; assay: TP_TRANSPORTER: inhibition of Ochratoxin A uptake (OTA: 1 uM, E1S: 100uM) in Xenopus laevis oocytes; format: functional, cell-based; settings: oocyte
# [5] = target: T1, Solute carrier organic anion transporter family member 1A1; assay: TP_TRANSPORTER: inhibition of Ochratoxin A uptake (OTA: 1 uM, CRC-220: 100uM) in Xenopus laevis oocytes; format: functional, cell-based; settings: oocyte
compound,measurement,setting,value
C[C@@H]1Cc2c(Cl)cc(C(=O)N[C@@H](Cc3ccccc3)C(=O)O)c(O)c2C(=O)O1 [3R14S-OCHRATOXIN A],Km,[1],16.6 µM
C[C@H](CCC(=O)NCC(=O)O)[C@H]1CC[C@H]2[C@@H]3[C@H](O)C[C@@H]4C[C@H](O)CC[C@]4(C)[C@H]3C[C@H](O)[C@]12C [GLYCOCHOLIC ACID],Activity,[2],inhibitor [+]
O=C1OC(c2ccc(O)c(S(=O)(=O)[O-])c2)(c2ccc(O)c(S(=O)(=O)[O-])c2)c2c(Br)c(Br)c(Br)c(Br)c21.[Na+].[Na+] [SULFOBROMOPHTHALEIN SODIUM],Activity,[3],inhibitor [+]
C[C@]12CC[C@@H]3c4ccc(OS(=O)(=O)O)cc4CC[C@H]3[C@@H]1CCC2=O [ESTRONE SULFURIC ACID],Activity,[4],inhibitor [+]
COc1cc(C)c(S(=O)(=O)N[C@@H](CC(=O)O)C(=O)N[C@H](Cc2ccc(C(=N)N)cc2)C(=O)N2CCCCC2)c(C)c1C,Activity,[5],inhibitor [+]
